4 molecules from publication PMC11345841, “Exploring 2-Sulfonylpyrimidine Warheads as Acrylamide Surrogates for Targeted Covalent Inhibition: A BTK Story” (Journal of Medicinal Chemistry, 2024) can be followed below.

Common to all, as to test: KINOMEscan ScanTK
Common to all, as to assay type: binding

The target in one assay is T1, TIE1 (Homo sapiens, UniProt P35590).
T1 construct: purchased Eurofins DiscoverX KINOMEscan (scanTK)

In another assay the target is T2, CSK (Homo sapiens, UniProt P41240).
T2 construct: purchased Eurofins DiscoverX KINOMEscan (scanTK)
T2 sequence (P41240 whole entry): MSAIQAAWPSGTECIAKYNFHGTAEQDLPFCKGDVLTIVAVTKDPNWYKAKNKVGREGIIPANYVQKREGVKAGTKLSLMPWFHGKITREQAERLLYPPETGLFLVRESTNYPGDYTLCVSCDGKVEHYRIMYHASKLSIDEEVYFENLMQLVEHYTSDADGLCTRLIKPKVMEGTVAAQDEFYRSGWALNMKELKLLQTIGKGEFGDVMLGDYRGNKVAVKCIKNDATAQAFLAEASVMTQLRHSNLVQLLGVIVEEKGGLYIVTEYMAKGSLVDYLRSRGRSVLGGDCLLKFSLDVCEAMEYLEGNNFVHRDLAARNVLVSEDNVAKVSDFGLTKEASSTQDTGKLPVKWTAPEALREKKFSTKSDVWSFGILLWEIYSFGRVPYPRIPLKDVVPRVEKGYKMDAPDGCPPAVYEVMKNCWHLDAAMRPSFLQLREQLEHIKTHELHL

In a further assay the target is T3, EPHB3 (Homo sapiens, UniProt P54753).
T3 construct: purchased Eurofins DiscoverX KINOMEscan (scanTK)
T3 sequence (P54753 34-998): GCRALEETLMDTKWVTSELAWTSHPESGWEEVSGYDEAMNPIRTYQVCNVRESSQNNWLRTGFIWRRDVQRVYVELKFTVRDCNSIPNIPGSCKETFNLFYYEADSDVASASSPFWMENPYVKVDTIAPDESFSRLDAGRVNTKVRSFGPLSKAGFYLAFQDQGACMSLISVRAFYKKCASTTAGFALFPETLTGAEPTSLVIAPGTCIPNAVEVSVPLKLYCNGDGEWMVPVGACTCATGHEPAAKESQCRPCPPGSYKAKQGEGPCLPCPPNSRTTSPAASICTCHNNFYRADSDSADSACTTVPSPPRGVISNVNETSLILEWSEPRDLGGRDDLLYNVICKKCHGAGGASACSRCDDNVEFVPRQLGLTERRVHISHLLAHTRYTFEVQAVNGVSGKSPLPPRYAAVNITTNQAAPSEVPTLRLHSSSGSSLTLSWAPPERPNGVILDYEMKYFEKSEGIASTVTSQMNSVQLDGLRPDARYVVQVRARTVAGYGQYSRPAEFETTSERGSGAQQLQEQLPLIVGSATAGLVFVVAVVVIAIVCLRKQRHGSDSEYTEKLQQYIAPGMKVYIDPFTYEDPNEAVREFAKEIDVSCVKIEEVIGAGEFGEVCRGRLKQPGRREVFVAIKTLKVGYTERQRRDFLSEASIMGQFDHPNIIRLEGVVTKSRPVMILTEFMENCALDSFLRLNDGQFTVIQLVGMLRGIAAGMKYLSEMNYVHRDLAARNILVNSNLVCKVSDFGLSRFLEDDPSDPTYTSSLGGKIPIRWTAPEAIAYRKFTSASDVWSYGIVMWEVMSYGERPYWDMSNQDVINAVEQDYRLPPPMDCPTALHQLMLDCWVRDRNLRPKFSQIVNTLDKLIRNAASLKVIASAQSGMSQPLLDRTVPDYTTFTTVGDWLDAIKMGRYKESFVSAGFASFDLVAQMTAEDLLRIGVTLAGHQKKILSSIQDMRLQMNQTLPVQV

The next assay deals with T4, RET(M918T) (Homo sapiens, UniProt P07949, M918T).
T4 construct: purchased Eurofins DiscoverX KINOMEscan (scanTK)
T4 sequence (P07949 29-1114 M918T): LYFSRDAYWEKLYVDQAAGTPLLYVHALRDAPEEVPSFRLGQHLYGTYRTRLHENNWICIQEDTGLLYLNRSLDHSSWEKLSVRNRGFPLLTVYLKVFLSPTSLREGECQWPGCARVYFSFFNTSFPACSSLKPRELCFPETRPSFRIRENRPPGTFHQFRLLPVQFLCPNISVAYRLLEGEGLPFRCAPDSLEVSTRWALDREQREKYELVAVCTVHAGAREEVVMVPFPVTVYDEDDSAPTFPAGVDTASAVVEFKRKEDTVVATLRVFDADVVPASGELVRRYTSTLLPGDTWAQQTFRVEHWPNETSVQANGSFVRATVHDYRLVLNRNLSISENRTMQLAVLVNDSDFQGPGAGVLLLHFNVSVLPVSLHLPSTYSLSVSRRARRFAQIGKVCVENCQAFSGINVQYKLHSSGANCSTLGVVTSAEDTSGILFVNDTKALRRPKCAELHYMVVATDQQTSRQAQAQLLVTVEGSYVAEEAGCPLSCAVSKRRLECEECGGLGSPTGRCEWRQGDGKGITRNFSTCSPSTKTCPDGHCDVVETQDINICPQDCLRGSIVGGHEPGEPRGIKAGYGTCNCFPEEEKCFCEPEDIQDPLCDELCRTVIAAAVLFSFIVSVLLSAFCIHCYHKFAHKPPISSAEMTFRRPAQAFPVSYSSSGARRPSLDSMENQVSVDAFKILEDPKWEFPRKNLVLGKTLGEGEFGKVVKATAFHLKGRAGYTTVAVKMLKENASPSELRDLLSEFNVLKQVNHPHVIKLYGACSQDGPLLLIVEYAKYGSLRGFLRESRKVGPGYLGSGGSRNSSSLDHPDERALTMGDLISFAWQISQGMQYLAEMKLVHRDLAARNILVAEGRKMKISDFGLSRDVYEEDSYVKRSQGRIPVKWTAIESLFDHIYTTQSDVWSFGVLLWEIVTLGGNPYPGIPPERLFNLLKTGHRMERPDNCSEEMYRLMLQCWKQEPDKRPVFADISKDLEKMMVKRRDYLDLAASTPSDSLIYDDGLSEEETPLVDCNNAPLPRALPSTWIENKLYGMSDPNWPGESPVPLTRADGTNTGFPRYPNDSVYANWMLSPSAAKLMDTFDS

The target in assay [1] is T5, TYK2(JH2domain-pseudokinase) (Homo sapiens, UniProt P29597).
T5 construct: TYK2(JH2domain-pseudokinase); purchased Eurofins DiscoverX KINOMEscan (scanTK)
T5 sequence (P29597 575-869 limits assumed): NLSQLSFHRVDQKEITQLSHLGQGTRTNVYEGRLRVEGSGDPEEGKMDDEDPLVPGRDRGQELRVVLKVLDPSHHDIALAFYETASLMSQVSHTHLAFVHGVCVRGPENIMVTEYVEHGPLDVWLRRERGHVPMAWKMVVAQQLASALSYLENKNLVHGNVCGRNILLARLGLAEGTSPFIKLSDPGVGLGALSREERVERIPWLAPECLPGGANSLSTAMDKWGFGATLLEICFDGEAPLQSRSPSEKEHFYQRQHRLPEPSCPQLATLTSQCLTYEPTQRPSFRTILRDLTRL
Particulars: for difference in %Control versus Ib at 1 µM: read-out: % difference (compound - Ib %Control).

In assay [2] the target is T6, ABL1(F317I)-nonphosphorylated (Homo sapiens, UniProt P00519, F317I).
T6 construct: purchased Eurofins DiscoverX KINOMEscan (scanTK)
T6 sequence (P00519 whole entry F317I): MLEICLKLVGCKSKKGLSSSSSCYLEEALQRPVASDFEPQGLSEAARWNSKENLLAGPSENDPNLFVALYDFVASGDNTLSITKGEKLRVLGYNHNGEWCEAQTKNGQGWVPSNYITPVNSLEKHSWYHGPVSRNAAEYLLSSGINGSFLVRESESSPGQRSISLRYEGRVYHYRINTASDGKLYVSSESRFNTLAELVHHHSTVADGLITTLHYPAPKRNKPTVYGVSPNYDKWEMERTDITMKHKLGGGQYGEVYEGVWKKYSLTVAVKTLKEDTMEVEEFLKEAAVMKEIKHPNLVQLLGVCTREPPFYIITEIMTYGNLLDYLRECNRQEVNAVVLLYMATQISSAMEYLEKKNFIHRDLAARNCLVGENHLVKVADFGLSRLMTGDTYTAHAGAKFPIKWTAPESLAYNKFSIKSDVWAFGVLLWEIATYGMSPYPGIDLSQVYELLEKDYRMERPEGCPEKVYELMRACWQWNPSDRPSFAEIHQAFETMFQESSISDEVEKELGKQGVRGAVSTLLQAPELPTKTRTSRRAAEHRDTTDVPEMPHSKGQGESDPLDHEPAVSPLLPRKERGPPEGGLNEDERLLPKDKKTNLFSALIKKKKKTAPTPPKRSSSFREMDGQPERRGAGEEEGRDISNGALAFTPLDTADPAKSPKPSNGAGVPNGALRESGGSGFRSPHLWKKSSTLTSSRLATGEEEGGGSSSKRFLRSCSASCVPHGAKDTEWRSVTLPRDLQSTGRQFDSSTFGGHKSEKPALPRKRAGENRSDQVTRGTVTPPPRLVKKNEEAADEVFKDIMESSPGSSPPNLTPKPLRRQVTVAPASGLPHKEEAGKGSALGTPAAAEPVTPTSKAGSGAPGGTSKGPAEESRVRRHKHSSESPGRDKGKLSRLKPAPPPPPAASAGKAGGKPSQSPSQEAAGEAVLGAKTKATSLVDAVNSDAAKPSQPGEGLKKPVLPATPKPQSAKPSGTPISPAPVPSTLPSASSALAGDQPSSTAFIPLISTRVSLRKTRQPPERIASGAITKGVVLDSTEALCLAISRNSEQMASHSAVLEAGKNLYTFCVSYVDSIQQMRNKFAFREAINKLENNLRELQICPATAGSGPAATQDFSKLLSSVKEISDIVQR

A further assay addresses T7, ITK (Homo sapiens, UniProt Q08881).
T7 construct: purchased Eurofins DiscoverX KINOMEscan (scanTK)
T7 sequence (Q08881 1-620): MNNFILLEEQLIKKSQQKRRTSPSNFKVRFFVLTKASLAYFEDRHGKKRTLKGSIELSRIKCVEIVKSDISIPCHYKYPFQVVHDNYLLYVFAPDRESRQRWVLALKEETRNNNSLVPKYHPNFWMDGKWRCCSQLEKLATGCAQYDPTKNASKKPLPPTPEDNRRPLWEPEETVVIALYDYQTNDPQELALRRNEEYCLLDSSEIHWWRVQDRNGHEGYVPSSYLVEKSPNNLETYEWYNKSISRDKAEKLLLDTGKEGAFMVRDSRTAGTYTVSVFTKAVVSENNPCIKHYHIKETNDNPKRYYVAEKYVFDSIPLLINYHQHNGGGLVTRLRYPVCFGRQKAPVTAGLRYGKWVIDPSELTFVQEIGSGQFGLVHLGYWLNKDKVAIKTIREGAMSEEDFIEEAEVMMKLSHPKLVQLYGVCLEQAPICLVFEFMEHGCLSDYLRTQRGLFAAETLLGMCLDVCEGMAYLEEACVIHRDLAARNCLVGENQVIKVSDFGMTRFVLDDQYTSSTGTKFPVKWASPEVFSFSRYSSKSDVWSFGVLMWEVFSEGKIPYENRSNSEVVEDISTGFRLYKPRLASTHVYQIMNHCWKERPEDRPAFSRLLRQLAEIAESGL
The settings on record: for remaining binding at 1 µM / difference in %Control versus compound Ib at 1 µM: ITK; for inhibition at 1 µM: ScanTK.

The target of the next assay is T8, ZAP70 (Homo sapiens, UniProt P43403).
T8 construct: purchased Eurofins DiscoverX KINOMEscan (scanTK)
T8 sequence (P43403 1-619): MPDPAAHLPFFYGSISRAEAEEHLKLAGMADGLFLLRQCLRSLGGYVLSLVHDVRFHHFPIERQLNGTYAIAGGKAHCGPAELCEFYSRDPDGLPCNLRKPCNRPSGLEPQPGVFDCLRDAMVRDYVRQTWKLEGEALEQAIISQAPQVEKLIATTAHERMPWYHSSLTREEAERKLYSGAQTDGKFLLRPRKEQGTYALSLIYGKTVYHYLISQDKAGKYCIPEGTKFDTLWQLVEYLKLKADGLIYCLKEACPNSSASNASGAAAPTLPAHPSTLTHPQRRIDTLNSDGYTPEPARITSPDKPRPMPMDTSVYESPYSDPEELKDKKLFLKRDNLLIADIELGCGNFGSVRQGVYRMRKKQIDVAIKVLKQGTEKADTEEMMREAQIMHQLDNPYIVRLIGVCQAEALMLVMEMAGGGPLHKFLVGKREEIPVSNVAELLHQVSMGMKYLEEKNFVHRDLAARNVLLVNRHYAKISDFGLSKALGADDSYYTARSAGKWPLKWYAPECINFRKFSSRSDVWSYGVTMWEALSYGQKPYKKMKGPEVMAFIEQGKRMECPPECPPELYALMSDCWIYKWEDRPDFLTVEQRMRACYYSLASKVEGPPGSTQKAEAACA

A further assay has as its target T9, EGFR(L861Q) (Homo sapiens, UniProt P00533, L861Q).
T9 construct: purchased Eurofins DiscoverX KINOMEscan (scanTK)

Each structure is given as a SMILES string. Where two headings read alike, the source gives them in different places.

T9 sequence (P00533 25-1210 L861Q): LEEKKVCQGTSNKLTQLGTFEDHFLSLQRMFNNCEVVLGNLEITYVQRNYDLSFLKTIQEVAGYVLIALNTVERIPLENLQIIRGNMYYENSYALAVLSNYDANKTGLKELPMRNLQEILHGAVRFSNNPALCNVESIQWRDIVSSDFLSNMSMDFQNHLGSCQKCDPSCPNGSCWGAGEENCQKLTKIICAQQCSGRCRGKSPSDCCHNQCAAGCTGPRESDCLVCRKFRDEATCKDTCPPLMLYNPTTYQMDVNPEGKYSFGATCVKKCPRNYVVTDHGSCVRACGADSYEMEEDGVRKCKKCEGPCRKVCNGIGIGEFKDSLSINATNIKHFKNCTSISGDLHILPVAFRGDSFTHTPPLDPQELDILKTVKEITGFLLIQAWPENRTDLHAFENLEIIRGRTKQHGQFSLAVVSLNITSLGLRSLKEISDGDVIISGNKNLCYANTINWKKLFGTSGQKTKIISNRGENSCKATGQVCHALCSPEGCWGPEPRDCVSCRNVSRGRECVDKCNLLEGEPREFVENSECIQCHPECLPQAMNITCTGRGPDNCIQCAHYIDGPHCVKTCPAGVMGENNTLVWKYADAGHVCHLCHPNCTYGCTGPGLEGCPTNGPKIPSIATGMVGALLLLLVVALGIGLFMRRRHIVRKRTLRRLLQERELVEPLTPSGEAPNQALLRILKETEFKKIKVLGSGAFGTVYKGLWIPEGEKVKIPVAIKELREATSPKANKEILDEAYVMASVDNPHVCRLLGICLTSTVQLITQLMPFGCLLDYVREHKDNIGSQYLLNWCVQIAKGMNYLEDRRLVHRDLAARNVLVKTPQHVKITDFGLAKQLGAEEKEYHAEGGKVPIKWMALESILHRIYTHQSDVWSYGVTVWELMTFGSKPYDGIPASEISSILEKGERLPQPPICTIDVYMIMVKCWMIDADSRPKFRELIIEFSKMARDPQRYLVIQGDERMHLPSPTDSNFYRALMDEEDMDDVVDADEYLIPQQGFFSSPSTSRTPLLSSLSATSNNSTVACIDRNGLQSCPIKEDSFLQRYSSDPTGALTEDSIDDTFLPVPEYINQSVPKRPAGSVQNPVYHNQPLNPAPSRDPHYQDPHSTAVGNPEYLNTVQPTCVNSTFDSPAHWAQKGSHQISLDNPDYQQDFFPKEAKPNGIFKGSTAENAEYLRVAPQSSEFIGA

With `C=CC(=O)N1CCC[C@@H](n2nc(-c3ccc(Oc4ccccc4)cc3)c3c(N)ncnc32)C1` [Compound 1g, Ibrutinib, reference compound], the remaining binding at 1 µM was found to be 57% at TIE1 (@1000nM, read-out: %Control); 57% on TIE1 (read-out: %Control @1000nM); 4.5% at CSK (@1000nM, read-out: %Control); 4.5% on CSK (read-out: %Control @1000nM); 98% on EPHB3 (@1000nM, read-out: %Control); 98% at EPHB3 (read-out: %Control @1000nM). Besides, the remaining binding at 1 µM is 14% at RET(M918T) (@1000nM, read-out: %Control); 14% on RET(M918T) (read-out: %Control @1000nM); 88% in assay [1] (@1000nM, read-out: %Control); 88% in assay [1] (read-out: %Control @1000nM); 52% in assay [2] (@1000nM, read-out: %Control); 52% in [2] (read-out: %Control @1000nM). Further, the remaining binding at 1 µM at ITK (@1000nM, read-out: %Control) was 15%; on ITK (read-out: %Control @1000nM) it was 15%. Further, at ITK, 1 µM produced 85% inhibition.

For the molecule `Cc1cnc(S(C)(=O)=O)nc1N1CCCC(n2nc(-c3ccc(Oc4ccccc4)cc3)c3c(N)ncnc32)C1` (stereo not drawn) [Compound 8a, 1-(1-(5-Methyl-2-(methylsulfonyl)pyrimidin-4-yl)piperidin-3-yl)-3-(4-phenoxyphenyl)-1H-pyrazolo[3,4-d]pyrimidin-4-amine], the remaining binding at 1 µM on ZAP70 (@1000nM, read-out: %Control) stood at 92%; on ZAP70 (read-out: %Control @1000nM), 92%; at TIE1 (@1000nM, read-out: %Control), 89%; on TIE1 (read-out: %Control @1000nM), 89%; on CSK (@1000nM, read-out: %Control) it was 6.6%; at CSK (read-out: %Control @1000nM), 6.6%. Also, the remaining binding at 1 µM worked out at 82% on EGFR(L861Q) (@1000nM, read-out: %Control); 82% at EGFR(L861Q) (read-out: %Control @1000nM); 100% at EPHB3 (@1000nM, read-out: %Control); 100% at EPHB3 (read-out: %Control @1000nM); 53% on RET(M918T) (@1000nM, read-out: %Control); 53% at RET(M918T) (read-out: %Control @1000nM). For the same molecule, the remaining binding at 1 µM in assay [1] (@1000nM, read-out: %Control) was determined as 92%; in assay [1] (read-out: %Control @1000nM), 92%; in assay [2] (@1000nM, read-out: %Control), 81%; in assay [2] (read-out: %Control @1000nM), 81%; on ITK (@1000nM, read-out: %Control), 84%; on ITK (read-out: %Control @1000nM), 84%. In addition, the difference in %Control from reference compound Ib at 1 µM at CSK (@1000nM) amounted to 2.1%. At EGFR(L861Q) (@1000nM), this molecule gave a difference in % of control versus compound Ib at 1 µM of 81.2%. Also, the difference in %Control versus compound Ib at 1 µM is 2% at EPHB3 (@1000nM), 29% in assay [2] (@1000nM) and 69% at ITK (@1000nM). Moreover, in [1] (@1000nM), the difference in %Control versus Ib at 1 µM worked out at 4%. Moreover, at 1 µM the inhibition on ITK was 16%.

On to `COC(=O)c1cnc(S(C)(=O)=O)nc1N1CCCC(n2nc(-c3ccc(Oc4ccccc4)cc3)c3c(N)ncnc32)C1` (stereo not drawn) [Compound 8b, Methyl 4-(3-(4-Amino-3-(4-phenoxyphenyl)-1H-pyrazolo[3,4-d]pyrimidin-1-yl)piperidin-1-yl)-2-(methylsulfonyl)pyrimidine-5-carboxylate], for which the remaining binding at 1 µM at ZAP70 (@1000nM, read-out: %Control) came to 94%; on ZAP70 (read-out: %Control @1000nM), 94%; at TIE1 (@1000nM, read-out: %Control) it was 77%; on TIE1 (read-out: %Control @1000nM), 77%; at CSK (@1000nM, read-out: %Control) it was 26%; at CSK (read-out: %Control @1000nM) it was 26%. The remaining binding at 1 µM on EGFR(L861Q) (@1000nM, read-out: %Control) amounted to 57%; on EGFR(L861Q) (read-out: %Control @1000nM), 57%; at EPHB3 (@1000nM, read-out: %Control) it was 97%; on EPHB3 (read-out: %Control @1000nM) it was 97%; on RET(M918T) (@1000nM, read-out: %Control), 49%; at RET(M918T) (read-out: %Control @1000nM), 49%. For the same molecule, the remaining binding at 1 µM in assay [1] (@1000nM, read-out: %Control) worked out at 96%; in assay [1] (read-out: %Control @1000nM) it was 96%; in [2] (@1000nM, read-out: %Control), 82%; in assay [2] (read-out: %Control @1000nM) it was 82%; at ITK (@1000nM, read-out: %Control), 71%; on ITK (read-out: %Control @1000nM), 71%. Also, the difference in %Control from reference compound Ib at 1 µM at CSK (@1000nM) came to 21.5%. At EGFR(L861Q) (@1000nM), the difference in % of control versus compound Ib at 1 µM came out at 56.2%. In addition, the difference in %Control versus compound Ib at 1 µM on EPHB3 (@1000nM) was -1%; in assay [2] (@1000nM) it was 30%; on ITK (@1000nM), 56%. Moreover, the difference in %Control versus Ib at 1 µM in assay [1] (@1000nM) came to 8%. On ITK, this molecule gave an inhibition at 1 µM of 29%.

Take `CCOC(=O)c1cnc(S(C)(=O)=O)nc1N1CCC[C@@H](n2nc(-c3ccc(Oc4ccccc4)cc3)c3c(N)ncnc32)C1` [Compound 8c, Ethyl (R)-4-(3-(4-Amino-3-(4-phenoxyphenyl)-1H-pyrazolo[3,4-d]pyrimidin-1-yl)piperidin-1-yl)-2-(methylsulfonyl)pyrimidine-5-carboxylate]: the remaining binding at 1 µM came out at 100% at ZAP70 (@1000nM, read-out: %Control); 100% at ZAP70 (read-out: %Control @1000nM); 60% at TIE1 (@1000nM, read-out: %Control); 60% at TIE1 (read-out: %Control @1000nM); 30% at CSK (@1000nM, read-out: %Control); 30% on CSK (read-out: %Control @1000nM). The remaining binding at 1 µM was determined as 82% at EGFR(L861Q) (@1000nM, read-out: %Control); 82% on EGFR(L861Q) (read-out: %Control @1000nM); 78% at EPHB3 (@1000nM, read-out: %Control); 78% at EPHB3 (read-out: %Control @1000nM); 87% on RET(M918T) (@1000nM, read-out: %Control); 87% on RET(M918T) (read-out: %Control @1000nM). Further, the remaining binding at 1 µM in assay [1] (@1000nM, read-out: %Control) came to 100%; in assay [1] (read-out: %Control @1000nM) it was 100%; in assay [2] (@1000nM, read-out: %Control), 98%; in [2] (read-out: %Control @1000nM) it was 98%; at ITK (@1000nM, read-out: %Control), 88%; at ITK (read-out: %Control @1000nM), 88%. In addition, the difference in %Control from reference compound Ib at 1 µM on CSK (@1000nM) came to 25.5%. Also, the difference in % of control versus compound Ib at 1 µM on EGFR(L861Q) (@1000nM) worked out at 81.2%. The values for the difference in %Control versus compound Ib at 1 µM (on EPHB3 (@1000nM); in assay [2] (@1000nM); on ITK (@1000nM)) were -20%, 46% and 73%, respectively. In addition, the difference in %Control versus Ib at 1 µM in assay [1] (@1000nM) is 12%. At ITK, this molecule gave an inhibition at 1 µM of 12%.
